Laboratory results published in US10844064B2, “sGC stimulators” (Cyclerion Therapeutics, Inc., priority 2014, dated 2020).
Where “and” joins values, the source holds several entries; their conditions need not be identical. Identical values can stand only once.

Molecular target: T1, sGC enzyme (Homo sapiens, UniProt Q02108+Q02153)
T1 construct: host or cells: HEK293 expressing GloSensor 40F cGMP
T1 sequence (Q02108 1-690): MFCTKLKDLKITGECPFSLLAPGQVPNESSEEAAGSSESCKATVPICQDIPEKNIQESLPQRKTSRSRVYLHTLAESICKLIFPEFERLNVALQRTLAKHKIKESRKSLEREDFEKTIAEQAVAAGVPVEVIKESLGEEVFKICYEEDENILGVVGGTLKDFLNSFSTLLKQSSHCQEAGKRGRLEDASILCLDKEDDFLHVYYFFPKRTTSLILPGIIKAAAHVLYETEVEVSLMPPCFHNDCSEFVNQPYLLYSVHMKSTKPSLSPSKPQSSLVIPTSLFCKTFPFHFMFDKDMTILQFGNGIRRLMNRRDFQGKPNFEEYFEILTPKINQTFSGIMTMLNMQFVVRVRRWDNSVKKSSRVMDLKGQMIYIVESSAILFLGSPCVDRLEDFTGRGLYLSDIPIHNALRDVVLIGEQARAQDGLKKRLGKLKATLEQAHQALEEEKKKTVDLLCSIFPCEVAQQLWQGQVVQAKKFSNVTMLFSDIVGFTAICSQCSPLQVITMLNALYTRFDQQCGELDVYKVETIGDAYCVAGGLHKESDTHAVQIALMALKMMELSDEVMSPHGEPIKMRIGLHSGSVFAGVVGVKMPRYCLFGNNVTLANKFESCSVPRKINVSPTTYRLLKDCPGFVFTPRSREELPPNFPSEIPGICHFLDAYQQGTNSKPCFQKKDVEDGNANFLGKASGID
T1 sequence (Q02153 1-619): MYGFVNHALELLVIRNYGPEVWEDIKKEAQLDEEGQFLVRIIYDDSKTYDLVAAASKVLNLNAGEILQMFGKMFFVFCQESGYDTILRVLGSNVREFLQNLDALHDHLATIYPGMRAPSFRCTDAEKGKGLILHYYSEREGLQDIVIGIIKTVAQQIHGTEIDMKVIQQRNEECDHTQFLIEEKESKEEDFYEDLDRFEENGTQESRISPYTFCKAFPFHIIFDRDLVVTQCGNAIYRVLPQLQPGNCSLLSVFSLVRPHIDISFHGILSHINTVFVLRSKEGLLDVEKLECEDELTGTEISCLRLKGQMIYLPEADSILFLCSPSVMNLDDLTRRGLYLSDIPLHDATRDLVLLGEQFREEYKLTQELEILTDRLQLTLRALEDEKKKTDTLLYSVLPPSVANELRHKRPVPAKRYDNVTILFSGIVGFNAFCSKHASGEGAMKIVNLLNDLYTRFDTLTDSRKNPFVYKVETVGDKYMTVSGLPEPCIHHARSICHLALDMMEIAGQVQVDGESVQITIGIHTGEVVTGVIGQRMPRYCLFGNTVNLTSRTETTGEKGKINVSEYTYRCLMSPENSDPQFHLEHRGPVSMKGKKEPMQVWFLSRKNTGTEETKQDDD
Assay: cGMP GloSensor cell-based assay, 384-well format (Example 2B)
Details: HEK293 GloSensor 40F cGMP cells, 10 μM DETA-NONOate; 50% of high control response (Compound Y); read-out: sGC_HEK_GloSensor EC50/IC50 Abs (Norm) (nM) Binned
Method: Data were normalized to a high control using the following equation: 100*(Sample—Low Control)/(High Control—Low Control), where the low control is the average of 16 samples treated with 1% DMSO, and the high control is the average of 16 samples treated with 30 μM of Compound Y depicted below. Data were fit using a 4-parameter fit (log(agonist) vs. response variable slope) using GraphPad Prism Software v.5. n=2 for all compounds. […] Compounds failing to elicit a minimum response of 50% are reported as >30 μM. For compounds run in duplicate or n higher than 2, the result herein given is the geometric mean of the several results obtained.
Human embryonic kidney cells (HEK293) cells expressing GloSensor™ 40F cGMP (Part No: CS182801, Promega) were used to evaluate the activity of test compounds. The luminescent biosensors (engineered luciferase) that were incorporated into these cells detect cGMP formed by the compounds stimulating the sGC enzyme and emit luminescence.
cGMP GloSensor cells were maintained in Dulbecco's Modification of Eagle's Medium (DMEM) supplemented with fetal bovine serum (FBS) (10% final) and hygromycine (200 μg/ml). The day before assay, cells were plated in DMEM with 10% FBS in a 50 μL volume at a density of 1.5×10^4 cells/well in a poly-D-lysine coated 384-well flat white-bottom plate (Corning Cat No 35661). Cells were incubated overnight at 37° C. in a humidified chamber with 5% CO2. The next day, medium was removed and cells were replaced with 40 μl/well of GloSensor™, […] (Promega Cat No E1291). Cells were treated for 90 minutes at 25° C. to allow the substrate to equilibrate in the cells. Test compounds and Diethylenetriamine NONOate (DETA-NONOate) was diluted to […] in serum-free CO2 independent medium and serally diluted at 4× dilutions to create 5× dose curve from which 10 ul was added to the wells (x uM concentration for test compound solution and 10 μM concentration for DETA-NONOate solution; wherein x is one of the following final concentrations).
For the kinetics studies, luminescense was measured right away for 0.2 sec per well with Envision (Perkin Elmer model No). For endpoint SAR screening, data were collected after 55 min incubation at room temperature.
Data analysis was carried out as indicated above in Example 2A.

| EC50 | Structure (SMILES) |
| --- | --- |
| > 1000 nM and < 100 nM | Cn1cc(-c2nc(N)c3c(n2)NC(=O)C3(C)C)nc1Cc1ccccc1F [Compound I-12] |
| 100 to 1000 nM | COc1cc(-c2ncc3c(n2)NC(=O)C3(C)C)nn1Cc1ccccc1F [Compound I-24] |
| 100 to 1000 nM | CC(=O)c1cc(-c2ncc3c(n2)NC(=O)C3(C)C)nn1Cc1ccccc1F [Compound I-25] |
| 100 to 1000 nM | COc1cc(-c2nc(O)c3c(n2)NC(=O)C3(C)C)nn1Cc1ccccc1F [Compound I-28] |
| > 1000 nM | CC1(C)C(=O)Nc2nc(-c3cc(O)n(Cc4ccccc4F)n3)ncc21 [Compound I-29] |
| 100 to 1000 nM | CC1(C)C(=O)Nc2nc(-c3cc(OC(F)F)n(Cc4ccccc4F)n3)nc(O)c21 [Compound I-32] |
| 100 to 1000 nM | COc1c(C)c(-c2nc(N)c3c(n2)NC(=O)C3(C)C)nn1Cc1ccccc1F [Compound I-41] |
| > 1000 nM | COc1c(C)c(-c2nc(O)c3c(n2)NC(=O)C3(C)C)nn1Cc1ccccc1F [Compound I-42] |
| < 100 nM | CC1(C)C(=O)Nc2nc(-c3cc(C#N)n(Cc4ccccc4F)n3)ncc21 [Compound I-45] |
| < 100 nM | COc1cc(-c2nc(N)c3c(n2)NC(=O)C3(C)C)nn1Cc1ccccc1 [Compound I-51, 4-amino-2-(1-benzyl-5-methoxy-1H-pyrazol-3-yl)-5,5-dimethyl-5H-pyrrolo-[2,3-d]pyrimidin-6(7H)-one] |
| 100 to 1000 nM | CC1(C)C(=O)Nc2nc(-c3ccn(Cc4ccccc4F)n3)nc(N)c21 [Compound I-73, 4-amino-2-(1-(2-fluorobenzyl)-1H-pyrazol-3-yl)-5,5-dimethyl-5H-pyrrolo[2,3-d]pyrimidin-6(7H)-one] |
| 100 to 1000 nM | CC1(C)C(=O)Nc2nc(-c3ccn(Cc4ccccc4F)n3)ncc21 [Compound I-74] |
| 100 to 1000 nM | CC1(C)C(=O)Nc2nc(-c3ccn(Cc4ccccc4F)n3)nc(NCC3CC3)c21 [Compound I-75] |
| 100 to 1000 nM | CC1(C)C(=O)Nc2nc(-c3ccn(Cc4ccccc4F)n3)nc(N3CCOCC3)c21 [Compound I-76] |
| > 1000 nM | Cc1nc(-c2ccn(Cc3ccccc3F)n2)nc2c1C(C)(C)C(=O)N2 [Compound I-77] |
| > 1000 nM | COc1nc(-c2ccn(Cc3ccccc3F)n2)nc2c1C(C)(C)C(=O)N2 [Compound I-78] |
| > 1000 nM | CC1(C)C(=O)Nc2nc(-c3ccn(Cc4ccccc4F)n3)nc(O)c21 [Compound I-79] |
| < 100 nM | CC1(C)C(=O)Nc2nc(-n3cc(-c4ccon4)c(Cc4ccccc4F)n3)nc(N)c21 [Compound I-80, 4-amino-2-(3-(2-fluorobenzyl)-4-(isoxazol-3-yl)-1H-pyrazol-1-yl)-5,5-dimethyl-5H-pyrrolo[2,3-d]pyrimidin-6(7H)-one] |

The next lines start with the compound.

| Structure (SMILES) | EC50 |
| --- | --- |
| COc1cc(-c2ncc3c(n2)N(C)C(=O)C3(C)C)nn1Cc1ccccc1F [Compound I-26] | > 1000 nM |
| COc1cc(-c2ncc3c(n2)NCC3(C)C)nn1Cc1ccccc1F [Compound I-27] | 100 to 1000 nM |
| CC1(C)C(=O)Nc2nc(-c3cc(OC(F)F)n(Cc4ccccc4F)n3)ncc21 [Compound I-31] | 100 to 1000 nM |
| COc1cc(-c2ncc3c(n2)N(CC2CC2)C(=O)C3(C)C)nn1Cc1ccccc1F [Compound I-33] | > 1000 nM |
| CCOc1cc(-c2ncc3c(n2)NC(=O)C3(C)C)nn1Cc1ccccc1F [Compound I-34] | > 1000 nM |
| CCCOc1cc(-c2ncc3c(n2)NC(=O)C3(C)C)nn1Cc1ccccc1F [Compound I-35] | > 1000 nM |
| CC(C)Oc1cc(-c2ncc3c(n2)NC(=O)C3(C)C)nn1Cc1ccccc1F [Compound I-36] | > 1000 nM |
| CC1(C)C(=O)Nc2nc(-n3cc(O)c(Cc4ccccc4F)n3)ncc21 [Compound I-37] | > 1000 nM |
| COc1cn(-c2ncc3c(n2)NC(=O)C3(C)C)nc1Cc1ccccc1F [Compound I-38] | < 100 nM |
| COc1c(Br)c(-c2ncc3c(n2)NC(=O)C3(C)C)nn1Cc1ccccc1F [Compound I-40] | < 100 nM |
| COc1c(C)c(-c2ncc3c(n2)NC(=O)C3(C)C)nn1Cc1ccccc1F [Compound I-43] | 100 to 1000 nM |
| COc1c(Cl)c(-c2ncc3c(n2)NC(=O)C3(C)C)nn1Cc1ccccc1F [Compound I-44] | < 100 nM |
| COc1cc(-c2ncc3c(n2)NC(=O)C3(C)C)nn1Cc1ccccc1 [Compound I-52] | 100 to 1000 nM |
| COc1cc(-c2ncc3c(n2)N(C(=O)OC(C)(C)C)C(=O)C3(C)C)nn1Cc1ccccc1 [Compound I-54, 2-(1-benzyl-5-methoxy-1H-pyrazol-3-yl)-5,5-dimethyl-6-oxo-5H-pyrrolo-[2,3-d]pyrimidine-7(6H)-carboxylate] | 100 to 1000 nM |
| COc1cc(-c2ncc3c(n2)NC(=O)C3(C)C)nn1Cc1cccc(F)c1 [Compound I-55] | < 100 nM |
| COc1cc(-c2ncc3c(n2)NC(=O)C3(C)C)nn1Cc1ccccc1Cl [Compound I-56] | 100 to 1000 nM |
| COc1cc(-c2ncc3c(n2)NC(=O)C3(C)C)nn1Cc1ccc(F)cc1 [Compound I-57] | 100 to 1000 nM |
| COc1cc(-c2ncc3c(n2)NC(=O)C3(C)C)nn1Cc1ccc(C)cc1 [Compound I-58] | < 100 nM |
| COc1cc(-c2ncc3c(n2)NC(=O)C3(C)C)nn1Cc1cccc(Cl)c1 [Compound I-59] | 100 to 1000 nM |
| COc1cc(-c2ncc3c(n2)NC(=O)C3(C)C)nn1Cc1cccc(C#N)c1 [Compound I-60] | 100 to 1000 nM |
| COc1cc(-c2ncc3c(n2)NC(=O)C3(C)C)nn1Cc1ccc(C(F)(F)F)cc1 [Compound I-62] | > 1000 nM |
| COc1cc(-c2ncc3c(n2)NC(=O)C3(C)C)nn1Cc1ccc(C)cc1F [Compound I-63] | < 100 nM |
| COc1cc(-c2ncc3c(n2)NC(=O)C3(C)C)nn1Cc1ccc(C(F)(F)F)c(F)c1 [Compound I-64] | > 1000 nM |
| Cn1c(=O)[nH]c2nc(-c3cc(-c4ccon4)n(Cc4ccccc4F)n3)ncc21 [Compound I-65] | > 30000 nM |
| Cn1cc(-c2ncc3c(n2)NC(=O)C3(C)C)nc1Cc1ccccc1F [Compound I-66] | > 1000 nM |
| COc1cn(-c2nnc3c(n2)NC(=O)C3(C)C)nc1Cc1ccccc1F [Compound I-67] | 100 to 1000 nM |
| CC1(C)C(=O)Nc2nnc(-c3cc(-c4ccon4)n(Cc4ccccc4F)n3)nc21 [Compound I-68] | > 1000 nM |
| CC1(C)C(=O)Nc2nc(-c3cc(C#N)n(Cc4ccccc4F)n3)nnc21 [Compound I-69] | 100 to 1000 nM |
| CC(=O)c1cc(-c2nnc3c(n2)NC(=O)C3(C)C)nn1Cc1ccccc1F [Compound I-70] | 100 to 1000 nM |
